Reference: ChEMBL document CHEMBL1201862, “PubChem BioAssay data set” (2004)
The source made the active and inactive calls.

What was measured:
[1] = biological target: T1, Tyrosine-protein phosphatase non-receptor type 7 (Homo sapiens, UniProt P35236); experiment: redox-active compounds inhibiting HePTP phosphatase – biochemical, fluorescence, mechanism study (AID 2068); type: functional
T1 sequence (P35236 whole entry): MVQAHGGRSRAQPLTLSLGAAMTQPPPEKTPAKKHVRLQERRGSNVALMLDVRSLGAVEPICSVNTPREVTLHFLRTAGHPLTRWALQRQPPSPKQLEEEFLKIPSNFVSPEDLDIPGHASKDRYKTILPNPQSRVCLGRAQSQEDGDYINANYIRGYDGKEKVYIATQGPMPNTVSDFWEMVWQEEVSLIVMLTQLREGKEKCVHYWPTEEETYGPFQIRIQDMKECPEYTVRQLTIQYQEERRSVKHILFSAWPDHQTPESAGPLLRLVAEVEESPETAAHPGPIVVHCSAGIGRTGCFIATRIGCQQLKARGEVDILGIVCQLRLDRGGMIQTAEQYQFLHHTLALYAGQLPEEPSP

[2] = biological target: T2, G-protein coupled receptor 35 (Homo sapiens, UniProt Q9HC97); experiment: SAR analysis of Antagonists of the GPR35 Receptor using an Image-Based Assay - Set 5. [Related pubchem assays (depositor defined):AID2058, AID2079]; type: functional
T2 sequence (Q9HC97 whole entry): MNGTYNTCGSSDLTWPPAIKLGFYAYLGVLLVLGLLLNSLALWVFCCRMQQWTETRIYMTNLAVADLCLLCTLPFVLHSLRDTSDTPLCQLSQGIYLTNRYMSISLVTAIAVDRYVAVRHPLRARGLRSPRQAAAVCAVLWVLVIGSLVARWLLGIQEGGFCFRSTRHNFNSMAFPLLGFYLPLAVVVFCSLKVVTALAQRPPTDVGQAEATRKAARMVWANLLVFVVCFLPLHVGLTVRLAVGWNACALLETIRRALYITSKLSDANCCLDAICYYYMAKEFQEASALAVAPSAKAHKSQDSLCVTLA

[3] = biological target: T2, G-protein coupled receptor 35; experiment: SAR Analysis for the identification of Selective Antagonists of ERK1/2 Activity in GPR35-Overexpressing U2OS Cells - Set 2. [Related pubchem assays (depositor defined):AID2058, AID2079]; type: functional, cell-based
[4] = biological target: G-protein coupled receptor 55 (Homo sapiens, UniProt Q9Y2T6); experiment: SAR Analysis of Selective Antagonists of GPR55 using an Image-Based Assay - Set 3. [Related pubchem assays (depositor defined):AID2058, AID2079]; type: functional
Chain of G-protein coupled receptor 55 (Q9Y2T6 whole entry): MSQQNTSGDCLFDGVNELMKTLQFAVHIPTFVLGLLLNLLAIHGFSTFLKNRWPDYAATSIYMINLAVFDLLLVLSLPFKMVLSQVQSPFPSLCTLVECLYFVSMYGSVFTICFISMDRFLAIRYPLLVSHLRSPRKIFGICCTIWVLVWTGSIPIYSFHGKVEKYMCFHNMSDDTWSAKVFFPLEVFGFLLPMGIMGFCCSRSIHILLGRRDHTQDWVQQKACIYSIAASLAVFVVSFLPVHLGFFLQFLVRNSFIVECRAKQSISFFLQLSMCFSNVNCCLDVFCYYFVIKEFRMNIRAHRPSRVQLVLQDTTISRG

Coagulation factor XII [5] = biological target: T3, Coagulation factor XII (Homo sapiens, UniProt P00748); experiment: Factor XIIa Dose Response Confirmation from Single Well HTS. [Related pubchem assays (depositor defined):AID701]; type: functional
T3 sequence (P00748 whole entry): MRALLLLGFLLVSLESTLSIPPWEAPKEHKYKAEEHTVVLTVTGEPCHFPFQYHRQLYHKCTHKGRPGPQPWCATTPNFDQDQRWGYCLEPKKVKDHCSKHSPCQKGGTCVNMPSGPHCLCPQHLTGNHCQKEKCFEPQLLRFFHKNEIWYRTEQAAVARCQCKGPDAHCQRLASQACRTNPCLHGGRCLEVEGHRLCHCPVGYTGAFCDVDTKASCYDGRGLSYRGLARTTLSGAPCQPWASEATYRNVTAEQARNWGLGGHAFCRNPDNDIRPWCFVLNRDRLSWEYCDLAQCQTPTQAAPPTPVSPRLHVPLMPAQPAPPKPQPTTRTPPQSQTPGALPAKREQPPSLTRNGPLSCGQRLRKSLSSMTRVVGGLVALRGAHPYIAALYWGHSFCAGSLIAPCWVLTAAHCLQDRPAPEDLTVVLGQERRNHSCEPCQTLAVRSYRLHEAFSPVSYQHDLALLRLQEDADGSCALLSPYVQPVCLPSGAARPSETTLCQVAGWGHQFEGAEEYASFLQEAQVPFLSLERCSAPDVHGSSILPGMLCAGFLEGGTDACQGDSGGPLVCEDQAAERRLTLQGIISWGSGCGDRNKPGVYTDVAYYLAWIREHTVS

Coagulation factor XII [6] = biological target: T3, Coagulation factor XII; experiment: activated coagulation factor XII inhibitor potency, concentration-effect curve, cell-free (AID 716); type: functional
Nonstructural protein 1 = Nonstructural protein 1 (Influenza A virus, UniProt Q194T2); type: functional, Influenza A virus (A/California/07/2009(H1N1))
Chain of Nonstructural protein 1 (Q194T2 whole entry): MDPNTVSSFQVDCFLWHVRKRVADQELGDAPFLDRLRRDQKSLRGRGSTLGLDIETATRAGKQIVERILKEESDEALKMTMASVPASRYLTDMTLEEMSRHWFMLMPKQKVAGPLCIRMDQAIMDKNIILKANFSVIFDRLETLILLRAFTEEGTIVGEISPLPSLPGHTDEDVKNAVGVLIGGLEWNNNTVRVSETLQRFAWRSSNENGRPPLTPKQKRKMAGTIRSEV

Hexokinase HKDC1 = biological target: T4, Hexokinase HKDC1 (Homo sapiens, UniProt Q2TB90); experiment: inhibition of HKDC1 glucose phosphorylation – biochemical, W721R variant, dose response (AID 504729); type: functional
T4 sequence (Q2TB90 whole entry): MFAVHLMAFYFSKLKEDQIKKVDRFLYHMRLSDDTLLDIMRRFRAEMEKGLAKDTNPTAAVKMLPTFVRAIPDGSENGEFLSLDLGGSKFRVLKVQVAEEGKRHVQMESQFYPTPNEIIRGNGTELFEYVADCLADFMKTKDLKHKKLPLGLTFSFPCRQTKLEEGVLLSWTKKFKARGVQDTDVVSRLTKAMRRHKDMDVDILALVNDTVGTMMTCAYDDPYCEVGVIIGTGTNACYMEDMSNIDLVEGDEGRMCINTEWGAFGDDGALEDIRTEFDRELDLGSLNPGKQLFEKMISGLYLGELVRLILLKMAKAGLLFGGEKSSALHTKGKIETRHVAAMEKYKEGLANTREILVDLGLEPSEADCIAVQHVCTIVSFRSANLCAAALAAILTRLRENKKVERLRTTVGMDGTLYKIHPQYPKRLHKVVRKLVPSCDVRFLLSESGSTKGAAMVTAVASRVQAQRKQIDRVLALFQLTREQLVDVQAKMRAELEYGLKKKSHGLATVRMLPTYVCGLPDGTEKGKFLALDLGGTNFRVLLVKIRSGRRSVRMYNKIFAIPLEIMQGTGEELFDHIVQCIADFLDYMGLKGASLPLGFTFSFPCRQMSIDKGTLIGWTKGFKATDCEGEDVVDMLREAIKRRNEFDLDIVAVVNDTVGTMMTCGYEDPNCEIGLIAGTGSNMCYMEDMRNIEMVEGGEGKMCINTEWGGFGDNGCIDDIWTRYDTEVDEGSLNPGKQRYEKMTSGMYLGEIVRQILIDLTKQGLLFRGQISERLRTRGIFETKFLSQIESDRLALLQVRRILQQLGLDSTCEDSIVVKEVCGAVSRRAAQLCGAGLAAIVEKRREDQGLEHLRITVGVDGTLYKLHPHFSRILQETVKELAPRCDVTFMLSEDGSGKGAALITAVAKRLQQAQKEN

Hexokinase-1 = biological target: T5, Hexokinase-1 (Homo sapiens, UniProt P19367); experiment: HK1 enzyme activation by HKDC1 hits – biochemical, selectivity assay for HKDC1 activator project, dose response (AID 504762); type: functional
T5 sequence (P19367 whole entry): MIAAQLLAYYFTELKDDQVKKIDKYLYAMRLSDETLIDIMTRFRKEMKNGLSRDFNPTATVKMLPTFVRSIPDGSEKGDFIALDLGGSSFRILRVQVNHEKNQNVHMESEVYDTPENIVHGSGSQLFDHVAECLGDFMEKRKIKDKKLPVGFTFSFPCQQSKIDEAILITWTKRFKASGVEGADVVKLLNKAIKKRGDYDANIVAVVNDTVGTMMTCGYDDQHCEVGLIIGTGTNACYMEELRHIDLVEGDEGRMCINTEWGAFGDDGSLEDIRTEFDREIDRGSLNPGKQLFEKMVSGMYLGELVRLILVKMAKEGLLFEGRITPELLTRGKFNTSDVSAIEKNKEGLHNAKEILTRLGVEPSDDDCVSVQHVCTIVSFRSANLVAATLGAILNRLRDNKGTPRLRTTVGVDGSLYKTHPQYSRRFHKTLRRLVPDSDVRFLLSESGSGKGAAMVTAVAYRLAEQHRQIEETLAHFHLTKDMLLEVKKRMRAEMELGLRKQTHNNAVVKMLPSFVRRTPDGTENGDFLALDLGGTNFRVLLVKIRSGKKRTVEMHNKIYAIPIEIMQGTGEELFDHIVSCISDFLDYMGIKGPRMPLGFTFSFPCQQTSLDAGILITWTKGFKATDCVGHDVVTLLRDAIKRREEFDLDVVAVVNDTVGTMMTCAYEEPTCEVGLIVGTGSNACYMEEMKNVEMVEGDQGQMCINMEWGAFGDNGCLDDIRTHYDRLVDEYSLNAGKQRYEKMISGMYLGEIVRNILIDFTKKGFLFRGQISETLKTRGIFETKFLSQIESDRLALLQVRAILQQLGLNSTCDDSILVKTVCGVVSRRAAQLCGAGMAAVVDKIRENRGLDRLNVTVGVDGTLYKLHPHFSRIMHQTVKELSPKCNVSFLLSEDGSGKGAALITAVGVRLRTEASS

[7] = biological target: T6, Rac GTPase-activating protein 1 (Homo sapiens, UniProt Q9H0H5); experiment: blockers of MgcRacGAP-driven Rac1 GTP hydrolysis – biochemical, ADP Hunter fluorescence, primary and confirmatory, confirmation (AID 624330); type: functional
T6 sequence (Q9H0H5 whole entry): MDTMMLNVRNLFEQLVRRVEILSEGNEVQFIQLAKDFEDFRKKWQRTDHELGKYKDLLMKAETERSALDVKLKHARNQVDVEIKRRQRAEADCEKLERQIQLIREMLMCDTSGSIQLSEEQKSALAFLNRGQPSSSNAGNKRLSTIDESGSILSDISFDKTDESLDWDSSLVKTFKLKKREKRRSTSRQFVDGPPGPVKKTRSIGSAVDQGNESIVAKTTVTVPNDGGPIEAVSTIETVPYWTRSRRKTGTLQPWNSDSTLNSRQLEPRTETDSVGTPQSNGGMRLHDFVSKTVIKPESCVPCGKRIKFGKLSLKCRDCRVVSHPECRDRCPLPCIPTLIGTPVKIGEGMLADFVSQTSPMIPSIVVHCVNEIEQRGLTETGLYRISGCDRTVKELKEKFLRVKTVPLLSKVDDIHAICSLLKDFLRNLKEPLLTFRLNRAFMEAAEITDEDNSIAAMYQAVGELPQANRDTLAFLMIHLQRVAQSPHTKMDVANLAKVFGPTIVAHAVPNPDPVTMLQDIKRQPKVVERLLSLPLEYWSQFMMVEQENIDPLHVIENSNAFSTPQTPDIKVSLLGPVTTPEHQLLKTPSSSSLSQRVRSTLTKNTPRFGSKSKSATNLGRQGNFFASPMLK

## O=C(Nc1ccc2nc(-c3ccco3)c(-c3ccco3)nc2c1)NC1CCCC1
[1]
  IC50: 1.1 µM (active)

## COC(=O)c1cnn(-c2ccc(Cl)cc2)c1/C=N/NC(=S)Nc1ccccc1
[2]
  IC50: 0.211 µM (active)
[3]
  IC50: 21.8 µM (inactive)
[4]
  IC50: > 32 µM (inactive)

## Cc1ccc(C(=O)n2nnc3ccccc32)cc1
Coagulation factor XII [5]
  IC50: 2.29 µM (active)

## CCCCC1(CC)C(=O)NC(=O)N=C1Nc1ccc(OC)cc1 (stereo not given)
Coagulation factor XII [6]
  IC50: > 50 µM (inactive)

## Oc1ccc(/C=N/NC(=S)Nc2cccnc2)c(O)c1
Nonstructural protein 1
  IC50: 1.82 µM (active)
Hexokinase HKDC1
  IC50: > 80 µM (inactive)
Hexokinase-1
  EC50: > 80 µM (inactive)
[7]
  IC50: 40.5 µM (active)
